≈ marks a conversion by molar mass, not a printed value.

From ChEMBL document CHEMBL3407427, “Discovery of efficacious Pseudomonas aeruginosa-targeted siderophore-conjugated monocarbams by application of a semi-mechanistic pharmacokinetic/pharmacodynamic model” (J Med Chem, 2015) come the findings set out here.

The nature of data set [1]: Percentage unbound in human plasma at 10 uM after 16 hrs by LC-MS/MS analysis.
Data set [2] in a line: Half life in PBS buffer in pH 7.4 by UPLC analysis. The data set is classed as ADME.
In data set [3] the test system is Pseudomonas aeruginosa. Nature of the data set: Antimicrobial activity against MexABCDXY-deficient Pseudomonas aeruginosa PAO1 ARC546 by broth microdilution method. The data set is classed as functional. (In general: Broth dilution looks for growth in wells or tubes with falling amounts of substance.)
The subject of data set [4] is Pseudomonas aeruginosa. Nature of the data set: Inhibition of Pseudomonas aeruginosa PBP3 acylation activity by BOCILLIN FL-based assay.
Data set [5] concerns Pseudomonas aeruginosa. Nature of the data set: Antimicrobial activity against Pseudomonas aeruginosa PAO1 ARC545 by broth microdilution method. Format: functional.

A word on the fraction unbound: it is the share of the substance not bound to proteins or other matrix. A word on the half-life: it is how long it takes for the measured level to halve. One may read the MIC as the lowest concentration found to suppress growth. Molecule `C[C@H]1[C@H](NC(=O)/C(=N\OC(C)(C)C(=O)O)c2csc(N)n2)C(=O)N1C(=O)NS(=O)(=O)N1CC[C@H](NC(=O)c2cc(=O)c(O)c[nH]2)C1` returned a fraction unbound at 16 h, 10 µM in data set [1] of 0.33. The half-life in data set [2] was > 150 h. Moreover, the minimal inhibitory concentration (MIC) in data set [3] was < 0.06 µg/mL; in data set [5] it was 1 µg/mL (≈ 1.46 µM). For the same molecule, the Kinact in data set [4] was 4.6 ×10⁴ /M/s.
As for `C[C@H]1[C@H](NC(=O)/C(=N\OC(C)(C)C(=O)O)c2csc(N)n2)C(=O)N1C(=O)NS(=O)(=O)N1C[C@@H](NCc2cc(=O)c(O)c[nH]2)CC1=O`, the fraction unbound at 16 h, 10 µM in data set [1] was 0.4. In data set [2], the half-life was 48 h. The minimum inhibitory concentration (MIC) in data set [3] was 0.5 µg/mL (≈ 0.731 µM); in data set [5], 8 µg/mL (≈ 11.7 µM). This molecule also yielded a Kinact in data set [4] of 5.7 ×10⁴ /M/s.
In turn, `C[C@H]1[C@H](NC(=O)/C(=N\OC(C)(C)C(=O)O)c2csc(N)n2)C(=O)N1C(=O)NS(=O)(=O)N1C[C@@H](N(C)C(=O)NCc2cc(=O)c(O)cn2O)CC1=O` returned a fraction unbound at 16 h, 10 µM in data set [1] of 0.27. The molecule further gave a half-life in data set [2] of 19 h. In addition, the MIC in data set [3] came to 0.25 µg/mL (≈ 0.33 µM); in data set [5], 0.5 µg/mL (≈ 0.661 µM). Also, the Kinact in data set [4] is 3.1 ×10⁴ /M/s.
For the molecule `C[C@H]1[C@H](NC(=O)/C(=N\OC(C)(C)C(=O)O)c2csc(N)n2)C(=O)N1C(=O)NS(=O)(=O)N1C[C@H](NC(=O)c2cc(=O)c(O)c[nH]2)CC1=O`, in data set [1], the fraction unbound at 16 h, 10 µM was determined as 0.25. The half-life in data set [2] was > 150 h. Further, the results for the MIC in data set [3] and in data set [5] were < 0.06 µg/mL and 0.5 µg/mL (≈ 0.717 µM), respectively. In data set [4], this molecule came in with a Kinact of 3.5 ×10⁵ /M/s.
`C[C@H]1[C@H](NC(=O)/C(=N\OC(C)(C)C(=O)O)c2csc(N)n2)C(=O)N1C(=O)NS(=O)(=O)N1C[C@@H](NC(=O)[C@@H]2CCCN2C(=O)c2cc(=O)c(O)c[nH]2)CC1=O`: the fraction unbound at 16 h, 10 µM in data set [1] turned out to be 0.28. This molecule had a half-life in data set [2] of 114 h. The minimum inhibitory concentration (MIC) stood at 0.5 µg/mL (≈ 0.629 µM) in data set [3] and 8 µg/mL (≈ 10.1 µM) in data set [5]. The same molecule showed a Kinact in data set [4] of 1.4 ×10⁴ /M/s.
For `C[C@H]1[C@H](NC(=O)/C(=N\OC(C)(C)C(=O)O)c2csc(N)n2)C(=O)N1C(=O)NS(=O)(=O)N1C[C@@H](NC(=O)CNC(=O)c2cc(=O)c(O)c[nH]2)CC1=O`, in that order: 0.38, > 150 h, 0.25 µg/mL (≈ 0.331 µM), 2 µg/mL (≈ 2.65 µM) and 2.4 ×10⁴ /M/s.
In the case of `C[C@H]1[C@H](NC(=O)/C(=N\OC(C)(C)C(=O)O)c2csc(N)n2)C(=O)N1C(=O)NS(=O)(=O)N1C[C@@H](n2cc(-c3cc(=O)c(O)c[nH]3)nn2)CC1=O`, the fraction unbound at 16 h, 10 µM in data set [1] stood at 0.31. The molecule also had a half-life in data set [2] of 117 h. Further, the MIC in data set [3] was < 0.06 µg/mL; in data set [5], 4 µg/mL (≈ 5.54 µM). In data set [4], this molecule displayed a Kinact of 2.3 ×10⁵ /M/s.
The matching figures for `C[C@H]1[C@H](NC(=O)/C(=N\OC(C)(C)C(=O)O)c2csc(N)n2)C(=O)N1C(=O)NS(=O)(=O)N1C[C@@H](NC(=O)c2cc(=O)c(O)cn2O)CC1=O`: 0.08, > 150 h, < 0.06 µg/mL, 0.5 µg/mL (≈ 0.701 µM) and 3 ×10⁵ /M/s.
In data set [1], `C[C@H]1[C@H](NC(=O)/C(=N\OC(C)(C)C(=O)O)c2csc(N)n2)C(=O)N1C(=O)NS(=O)(=O)N1C[C@@H](NC(=O)[C@H](CC(=O)O)NC(=O)c2cc(=O)c(O)c[nH]2)CC1=O` had a fraction unbound at 16 h, 10 µM of 0.14. For the same molecule, the half-life in data set [2] is > 150 h. The minimum inhibitory concentration (MIC) was determined as 0.5 µg/mL (≈ 0.615 µM) in data set [3] and 1 µg/mL (≈ 1.23 µM) in data set [5]. In addition, the Kinact in data set [4] was 3.8 ×10⁴ /M/s.
`CC(C)(O/N=C(\C(=O)N[C@@H]1C(=O)N(C(=O)NS(=O)(=O)N2C[C@@H](NC(=O)NCc3cc(=O)c(O)cn3O)CC2=O)C1(C)C)c1csc(N)n1)C(=O)O`: the free fraction (fraction unbound) at 16 h, 10 µM in data set [1] stood at 0.23. In addition, the half-life in data set [2] is > 150 h. For the same molecule, the minimal inhibitory concentration (MIC) came out at 1 µg/mL (≈ 1.32 µM) in data set [3] and 8 µg/mL (≈ 10.6 µM) in data set [5]. The molecule also registered a Kinact in data set [4] of 8.1 ×10² /M/s.
In data set [2], `C[C@H]1[C@H](NC(=O)/C(=N\OC(C)(C)C(=O)O)c2csc(N)n2)C(=O)N1C(=O)NS(=O)(=O)N1N=C(c2cc(=O)c(O)c[nH]2)NCC1=O` gave a half-life of 40 h. For the same molecule, the MIC in data set [3] came to 2 µg/mL (≈ 2.99 µM); in data set [5], 16 µg/mL (≈ 23.9 µM). The Kinact in data set [4] came out at 3.8 ×10³ /M/s.
